Measurements as given in patent publication US9499550B2 (BRISTOL-MYERS SQUIBB COMPANY, priority 2012, dated 2016).
Like-named read-outs stand apart in the source and are kept apart here.

How the values were obtained:
[1] = system: HCV genotype 1b (Con1) replicon in HUH-7 cells; assay: HCV replicon luciferase reporter assay, genotype 1b; format: cell-based; conditions: Hepatitis C virus, Huh-7, 72 h, 3 days incubation, read-out: LE_1b (EC50, range)
In short: (§1)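 Replicon inhibition for both genotypes was measured as Renilla luciferase signal (EnduRen, 7.5 μM final, 2 h) after 3-day, 37° C exposure of replicon-bearing HUH-7 cells in 4% FCS DMEM, 0.5% DMSO. The 1b construct carries S1179I; the 1a H77 construct carries P1496L and S2204I. Twenty-point, 3-fold dilutions were fitted four-parametrically for EC50, and CC50 was taken from multiplexed Cell Titer-Blue.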

[2] = system: HCV genotype 1a (H77 strain) replicon in HUH-7 cells; assay: HCV replicon luciferase reporter assay, genotype 1a; format: cell-based; conditions: Hepatitis C virus, Huh-7, 72 h, 3 days incubation, read-out: LE_1a (EC50, range)
In short: as §1

[3] = HCV genotype 1b replicon luciferase
[4] = HCV genotype 1a replicon luciferase
[5] = HCV genotype 1b replicon luciferase assay, range class
[6] = HCV genotype 1a replicon luciferase assay, range class

SMILES	EC50 [1, 3] [nM]	EC50 [2, 4] [nM]	EC50 [1, 5] [nM]	EC50 [2, 6] [nM]	also measured
COc1ccc2c(O[C@@H]3C[C@H]4C(=O)N[C@]5(C(=O)NS(=O)(=O)C6CC6)C[C@H]5/C=C\CC[C@@H](C)C[C@@H](C)[C@H](NC(=O)OC(C)(C)C(C)(F)F)C(=O)N4C3)nc(-c3ccc4c(c3)OCCO4)cc2c1 [Compound 5241, 3,3-difluoro-2-methylbutan-2-yl((2R,6S,7R,9R,13aS,14aR,16aS,Z)-14a-((cyclopropylsulfonyl)carbamoyl)-2-((3-(2,3-dihydrobenzo[b][1,4]dioxin-6-yl)-6-methoxyisoquinolin-1-yl)oxy)-7,9-dimethyl-5,16-dioxo-1,2,3,5,6,7,8,9,10,11,13a,14,14a,15,16,16a-hexadecahydrocyclopropa[e]pyrrolo[1,2-a][1,4]diazacyclopentadecin-6-yl)carbamate]	< 5.46	< 5.46			
COc1ccc2c(O[C@@H]3C[C@H]4C(=O)N[C@]5(C(=O)NS(=O)(=O)C6(C)CC6)C[C@H]5/C=C\CC[C@H](C)C[C@@H](C)[C@H](NC(=O)OC(C)(C)C(C)(F)F)C(=O)N4C3)nc(-c3ccc(OC(C)C)cn3)cc2c1 [Compound 5476, 3,3-difluoro-2-methylbutan-2-yl((2R,6S,7R,9S,13aS,14aR,16aS,Z)-2-((3-(5-isopropoxypyridin-2-yl)-6-methoxyisoquinolin-1-yl)oxy)-7,9-dimethyl-14a-(((1-methylcyclopropyl)sulfonyl)carbamoyl)-5,16-dioxo-1,2,3,5,6,7,8,9,10,11,13a,14,14a,15,16,16a-hexadecahydrocyclopropa[e]pyrrolo[1,2-a][1,4]diazacyclopentadecin-6-yl)carbamate]	1.01 to 5	5.01 to 35			
COCCn1nc(O[C@@H]2C[C@H]3C(=O)N[C@]4(C(=O)NS(=O)(=O)C5CC5)C[C@H]4/C=C\CC[C@@H](C)C[C@@H](C)[C@H](NC(=O)OC(C)(C)C(F)(F)F)C(=O)N3C2)c2ccccc2c1=O [Compound 1022, 1,1,1-trifluoro-2-methylpropan-2-yl((2R,6S,7R,9R,13aS,14aR,16aS,Z)-14a-((cyclopropylsulfonyl)carbamoyl)-2-((3-(2-methoxyethyl)-4-oxo-3,4-dihydrophthalazin-1-yl)oxy)-7,9-dimethyl-5,16-dioxo-1,2,3,5,6,7,8,9,10,11,13a,14,14a,15,16,16a-hexadecahydrocyclopropa[e]pyrrolo[1,2-a][1,4]diazacyclopentadecin-6-yl)carbamate]			4.82 to 103	4.82 to 103	
COc1ccc2c(O[C@@H]3C[C@H]4C(=O)N[C@]5(C(=O)NS(=O)(=O)C6(C)CC6)C[C@H]5/C=C\CC[C@H](C)C[C@@H](C)[C@H](NC(=O)NC(C)(C)C)C(=O)N4C3)nccc2c1 [Compound 5178, (2R,6S,7R,9S,13aS,14aR,16aS,Z)-6-(3-(tert-butyl)ureido)-2-((6-methoxyisoquinolin-1-yl)oxy)-7,9-dimethyl-N-((1-methylcyclopropyl)sulfonyl)-5,16-dioxo-1,2,3,5,6,7,8,9,10,11,13a,14,14a,15,16,16a-hexadecahydrocyclopropa[e]pyrrolo[1,2-a][1,4]diazacyclopentadecine-14a-carboxamide]	< 5.46	4.82 to 103			
C=COc1cnc(O[C@@H]2C[C@H]3C(=O)N[C@]4(C(=O)NS(=O)(=O)C5(C)CC5)C[C@H]4/C=C\CC[C@@H](C)C[C@@H](C)[C@H](NC(=O)OC(C)(C)C(F)(F)F)C(=O)N3C2)c2ccc(OC)cc12 [Compound 4231]					EC50 ([1]; GETYPE1B, HCV genotype 1b replicon luciferase): < 5.46 nM; EC50 ([2]; GETYPE1A, HCV genotype 1a replicon luciferase): < 5.46 nM
C[C@@H]1CC/C=C\[C@@H]2C[C@@]2(C(=O)NS(=O)(=O)C2(C)CC2)NC(=O)[C@@H]2C[C@@H](Oc3nc4c(c5ccccc35)OCCC4)CN2C(=O)[C@@H](NC(=O)OC(C)(C)C(C)(F)F)[C@H](C)C1 [Compound 6034, 3,3-difluoro-2-methylbutan-2-yl((2R,6S,7R,9R,13aS,14aR,16aS,Z)-2-((3,4-dihydro-2H-pyrano[3,2-c]isoquinolin-6-yl)oxy)-7,9-dimethyl-14a-(((1-methylcyclopropyl)sulfonyl)carbamoyl)-5,16-dioxo-1,2,3,5,6,7,8,9,10,11,13a,14,14a,15,16,16a-hexadecahydrocyclopropa[e]pyrrolo[1,2-a][1,4]diazacyclopentadecin-6-yl)carbamate]	< 5.46	< 5.46			
COc1cnc(O[C@@H]2C[C@H]3C(=O)N[C@]4(C(=O)NS(=O)(=O)C5(CF)CC5)C[C@H]4/C=C\CC[C@@H](C)C[C@@H](C)[C@H](NC(=O)OC(C)(C)C)C(=O)N3C2)c2ccc(F)cc12 [Compound 3146, tert-butyl ((2R,6S,7R,9R,13aS,14aR,16aS,Z)-2-((6-fluoro-4-methoxyisoquinolin-1-yl)oxy)-14a-(((1-(fluoromethyl)cyclopropyl)sulfonyl)carbamoyl)-7,9-dimethyl-5,16-dioxo-1,2,3,5,6,7,8,9,10,11,13a,14,14a,15,16,16a-hexadecahydrocyclopropa[e]pyrrolo[1,2-a][1,4]diazacyclopentadecin-6-yl)carbamate]			< 5.46	< 5.46	
C[C@@H]1CCC(O)C[C@@H]2C[C@@]2(C(=O)NS(=O)(=O)C2(C)CC2)NC(=O)[C@@H]2C[C@@H](Oc3ncc(OC4CC4)c4ccccc34)CN2C(=O)[C@@H](NC(=O)OC(C)(C)C(F)(F)F)[C@H](C)C1 (stereo partly drawn) [Compound 2001, 1,1,1-trifluoro-2-methylpropan-2-yl ((2R,6S,7R,9R,13aS,14aR,16aS)-2-((4-cyclopropoxyisoquinolin-1-yl)oxy)-12-hydroxy-7,9-dimethyl-14a-(((1-methylcyclopropyl)sulfonyl)carbamoyl)-5,16-dioxooctadecahydrocyclopropa[e]pyrrolo[1,2-a][1,4]diazacyclopentadecin-6-yl)carbamate]			4.82 to 103	4.82 to 103	
COc1ccc2c(O[C@@H]3C[C@H]4C(=O)N[C@]5(C(=O)NS(=O)(=O)C6CC6)C[C@H]5/C=C\CC[C@H](C)C[C@@H](C)[C@H](NC(=O)OC(C)(C)C)C(=O)N4C3)nc(-c3ccc(OC)c(Cl)c3)cc2c1 [Compound 3047, tert-butyl ((2R,6S,7R,9S,13aS,14aR,16aS,Z)-2-((3-(3-chloro-4-methoxyphenyl)-6-methoxyisoquinolin-1-yl)oxy)-14a-((cyclopropylsulfonyl)carbamoyl)-7,9-dimethyl-5,16-dioxo-1,2,3,5,6,7,8,9,10,11,13a,14,14a,15,16,16a-hexadecahydrocyclopropa[e]pyrrolo[1,2-a][1,4]diazacyclopentadecin-6-yl)carbamate]			< 5.46	4.82 to 103	
CC[C@@H]1C[C@H](C)CC/C=C\[C@@H]2C[C@@]2(C(=O)NS(=O)(=O)C2CC2)NC(=O)[C@@H]2C[C@@H](Oc3nccc4c5c(ccc34)OCCO5)CN2C(=O)[C@H]1NC(=O)OC(C)(C)C(C)(F)F [Compound 5336, 3,3-difluoro-2-methylbutan-2-yl((2R,6S,7R,9R,13aS,14aR,16aS,Z)-14a-((cyclopropylsulfonyl)carbamoyl)-2-((2,3-dihydro-[1,4]dioxino[2,3-f]isoquinolin-7-yl)oxy)-7-ethyl-9-methyl-5,16-dioxo-1,2,3,5,6,7,8,9,10,11,13a,14,14a,15,16,16a-hexadecahydrocyclopropa[e]pyrrolo[1,2-a][1,4]diazacyclopentadecin-6-yl)carbamate]	< 5.46	< 5.46			
COc1ccc2c(O[C@@H]3C[C@H]4C(=O)N[C@]5(C(=O)NS(=O)(=O)C6CC6)C[C@H]5/C=C\CC[C@@H](C)C[C@@H](C)[C@H](NC(=O)OC(C)(C)C)C(=O)N4C3)nccc2c1 [Compound 1068, tert-butyl ((2R,6S,7R,9R,13aS,14aR,16aS,Z)-14a-((cyclopropylsulfonyl)carbamoyl)-2-((6-methoxyisoquinolin-1-yl)oxy)-7,9-dimethyl-5,16-dioxo-1,2,3,5,6,7,8,9,10,11,13a,14,14a,15,16,16a-hexadecahydrocyclopropa[e]pyrrolo[1,2-a][1,4]diazacyclopentadecin-6-yl)carbamate]			< 5.46	< 5.46	
[2H]C([2H])([2H])C(OC(=O)N[C@@H]1C(=O)N2C[C@H](Oc3nn(CC)c(=O)c4ccccc34)C[C@H]2C(=O)N[C@]2(C(=O)NS(=O)(=O)C3(C)CC3)C[C@H]2/C=C\CC[C@@H](C)C[C@H]1C)(C([2H])([2H])[2H])C(F)(F)F [Compound 5055]	< 5.46	4.82 to 103			
COc1ccc2c(O[C@@H]3C[C@H]4C(=O)N[C@]5(C(=O)NS(=O)(=O)C6CC6)C[C@H]5/C=C\CC[C@H](C)C[C@@H](C)[C@H](NC(=O)OC(C)(C)C(F)(F)F)C(=O)N4C3)nc(-c3ccc(OC(C)C)cn3)cc2c1 [Compound 5202, 1,1,1-trifluoro-2-methylpropan-2-yl((2R,6S,7R,9S,13aS,14aR,16aS,Z)-14a-((cyclopropylsulfonyl)carbamoyl)-2-((3-(5-isopropoxypyridin-2-yl)-6-methoxyisoquinolin-1-yl)oxy)-7,9-dimethyl-5,16-dioxo-1,2,3,5,6,7,8,9,10,11,13a,14,14a,15,16,16a-hexadecahydrocyclopropa[e]pyrrolo[1,2-a][1,4]diazacyclopentadecin-6-yl)carbamate]	< 5.46	< 5.46			
